*1 amine or outer side, *2 acyl side, *3 side chain or, on linkers, in order; H or OH if unused. Where a SMILES comes first, the peptide text is derived from it. [ ]: non-standard residue; d: D form. The star is where a group is joined. cisHyp = O=C(O)[C@@H]1C[C@H](O)CN1; Hydrocinnamoyl = O=C(CCc1ccccc1)*; αMeP = C[C@@]1(C(=O)O)CCCN1; 3Abz = Nc1cccc(C(=O)O)c1; Cbz = O=C(OCc1ccccc1)*; PhAc = O=C(Cc1ccccc1)*; CO = O=C([*:1])[*:2]; Bz = O=C(c1ccccc1)*; NHPh = c1ccc(N*)cc1; CH2F = FC*
Assays:
[1] = molecular target: MALT1 (Homo sapiens (Human), UniProt Q9UDY8); assay: Inhibition constants (Ki) for inhibition of MALT1; assay type: biochemical; details: 100 nM MALT1 used for the assay
Method: For exemplary compounds of the disclosure, Ki for inhibition of MALT1 was measured (Table E11). A concentration of 100 nM MALT1 was used for the assay.

[2] = tested on: OCI-LY3; assay: Cell growth inhibition assay (CellTiter-Glo, 96 hours), OCI-LY3; assay type: cell-based, human; details: Homo sapiens, OCI-LY3 cells, treated at t=0 and t=48 hours, ATP luminescence
Method: DLBCL cell lines were grown in exponential growth conditions during the 96 hours of treatment. Cells were treated twice: at t=0 and t=48 hours, and cell viability was determined by ATP quantification using a luminescent method ([…]-GLO, Promega, Madison, Wis.). Cell viability in drug-treated cells was normalized to vehicle controls (fractional viability) and results are given as 1-fractional viability.
Experiments were Performed in Triplicate.

Chain of MALT1 (Q9UDY8 whole entry): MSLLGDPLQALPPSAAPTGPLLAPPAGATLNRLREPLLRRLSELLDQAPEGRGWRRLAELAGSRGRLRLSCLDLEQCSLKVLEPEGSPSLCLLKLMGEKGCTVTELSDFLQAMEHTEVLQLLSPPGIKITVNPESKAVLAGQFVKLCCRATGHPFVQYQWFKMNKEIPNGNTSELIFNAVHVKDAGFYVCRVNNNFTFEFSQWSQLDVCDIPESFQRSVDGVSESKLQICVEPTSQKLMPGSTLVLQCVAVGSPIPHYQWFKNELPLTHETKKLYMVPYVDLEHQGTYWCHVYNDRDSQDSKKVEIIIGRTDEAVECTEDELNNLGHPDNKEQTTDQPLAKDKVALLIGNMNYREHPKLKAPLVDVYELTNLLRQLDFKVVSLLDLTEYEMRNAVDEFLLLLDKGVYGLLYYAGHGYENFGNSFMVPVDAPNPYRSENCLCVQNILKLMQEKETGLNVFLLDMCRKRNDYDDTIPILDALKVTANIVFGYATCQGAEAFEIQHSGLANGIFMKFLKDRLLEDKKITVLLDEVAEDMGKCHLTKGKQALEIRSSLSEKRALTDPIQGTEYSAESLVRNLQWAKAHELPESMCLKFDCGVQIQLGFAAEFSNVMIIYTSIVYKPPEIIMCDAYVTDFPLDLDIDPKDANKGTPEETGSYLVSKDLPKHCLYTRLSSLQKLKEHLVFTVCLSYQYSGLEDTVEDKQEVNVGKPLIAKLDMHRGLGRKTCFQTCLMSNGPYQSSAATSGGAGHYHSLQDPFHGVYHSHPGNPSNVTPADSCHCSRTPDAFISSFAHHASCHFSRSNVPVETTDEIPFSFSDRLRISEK

| Ki [1] [nM] | GI50 [2] [nM] | Compound |
| --- | --- | --- |
| 49 | 1070 | CC(C)[C@H](NC(=O)OCc1ccccc1)C(=O)N1C[C@@H](O)C[C@H]1C(=O)N[C@@H](CCCNC(=N)N)C(=O)CF [Compound 110] (Cbz-Val-[cisHyp]-Arg-CH2F) |
| 158 | 10500 | CC(C)[C@H](NC(=O)OCc1ccccc1)C(=O)N1CCC[C@@]1(C)C(=O)N[C@@H](CCCNC(=N)N)C(=O)CF [Compound 111] (Cbz-Val-[αMeP]-Arg-CH2F) |
| 40 | 660 | CC(C)[C@H](NC(=O)c1ccccc1)C(=O)N1CCC[C@H]1C(=O)N[C@@H](CCCNC(=N)N)C(=O)CF [Compound 113] (Bz-Val-Pro-Arg-CH2F) |
| 42 | 3370 | CC(C)[C@H](NC(=O)Cc1ccccc1)C(=O)N1CCC[C@H]1C(=O)N[C@@H](CCCNC(=N)N)C(=O)CF [Compound 117] (PhAc-Val-Pro-Arg-CH2F) |
| 46 | 2910 | CC(C)[C@H](NC(=O)Cc1cccc(Br)c1)C(=O)N1CCC[C@H]1C(=O)N[C@@H](CCCNC(=N)N)C(=O)CF [Compound 118] |
| 43 | 1880 | CC(C)[C@H](NC(=O)CCc1ccccc1)C(=O)N1CCC[C@H]1C(=O)N[C@@H](CCCNC(=N)N)C(=O)CF [Compound 119] (Hydrocinnamoyl-Val-Pro-Arg-CH2F) |
| 109 | 7290 | COc1ccccc1C(=O)N[C@H](C(=O)N1CCC[C@H]1C(=O)N[C@@H](CCCNC(=N)N)C(=O)CF)C(C)C [Compound 121] |
| 75 | 2000 | COc1cccc(C(=O)N[C@H](C(=O)N2CCC[C@H]2C(=O)N[C@@H](CCCNC(=N)N)C(=O)CF)C(C)C)c1 [Compound 122] |
| 52 | 1520 | CC(C)[C@H](NC(=O)Nc1ccccc1)C(=O)N1CCC[C@H]1C(=O)N[C@@H](CCCNC(=N)N)C(=O)CF [Compound 129] ({NHPh-CO}-Val-Pro-Arg-CH2F) |
| 54 | > 20000 | CC(=O)Nc1cccc(C(=O)N[C@H](C(=O)N2CCC[C@H]2C(=O)N[C@@H](CCCNC(=N)N)C(=O)CF)C(C)C)c1 [Compound 133] (Ac-[3Abz]VPR-CH2F) |
| 67 | 1240 | CC(C)[C@H](NC(=O)c1ccc(Cl)cc1)C(=O)N1CCC[C@H]1C(=O)N[C@@H](CCCNC(=N)N)C(=O)CF [Compound 136] |
| 30 | 550 | CC(C)[C@H](NC(=O)c1ccc(-c2ccccc2)cc1)C(=O)N1CCC[C@H]1C(=O)N[C@@H](CCCNC(=N)N)C(=O)CF [Compound 137] |
| 121 | 1750 | CC(C)[C@H](NC(=O)c1ncc(-c2ccccc2)s1)C(=O)N1CCC[C@H]1C(=O)N[C@@H](CCCNC(=N)N)C(=O)CF [Compound 139] |
| 64 | 290 | CC(C)[C@H](NC(=O)OCc1ccccc1)C(=O)N[C@@H](CO)C(=O)N[C@@H](CCCNC(=N)N)C(=O)CF [Compound 140] |

More lines, now with the values behind:

| Compound | Ki [1] [nM] | GI50 [2] [nM] |
| --- | --- | --- |
| COc1ccc(C(=O)N[C@H](C(=O)N2CCC[C@H]2C(=O)N[C@@H](CCCNC(=N)N)C(=O)CF)C(C)C)cc1 [Compound 123] | 50 | 1670 |
| CC(C)[C@H](NC(=O)c1cnn(C)c1)C(=O)N1CCC[C@H]1C(=O)N[C@@H](CCCNC(=N)N)C(=O)CF [Compound 124] | 100 | 16800 |
| CC(C)[C@H](NC(=O)c1ccc(C#N)cc1)C(=O)N1CCC[C@H]1C(=O)N[C@@H](CCCNC(=N)N)C(=O)CF [Compound 126] | 60 | 6660 |
| CC(C)[C@H](NC(=O)c1ccc(N2CCOCC2)cc1)C(=O)N1CCC[C@H]1C(=O)N[C@@H](CCCNC(=N)N)C(=O)CF [Compound 127] | 75 | > 20000 |
| CC(C)[C@H](NC(=O)c1csc(N2CCOCC2)n1)C(=O)N1CCC[C@H]1C(=O)N[C@@H](CCCNC(=N)N)C(=O)CF [Compound 128] | 111 | > 20000 |
| CC(C)[C@H](NC(=O)c1cccc(N2CCOCC2)c1)C(=O)N1CCC[C@H]1C(=O)N[C@@H](CCCNC(=N)N)C(=O)CF [Compound 131] | 58 | 14500 |
| CC(C)[C@H](NC(=O)c1cccc(N2CCN(C)CC2)c1)C(=O)N1CCC[C@H]1C(=O)N[C@@H](CCCNC(=N)N)C(=O)CF [Compound 132] | 175 | > 20000 |
| CC(C)[C@H](NC(=O)c1cccc(C#N)c1)C(=O)N1CCC[C@H]1C(=O)N[C@@H](CCCNC(=N)N)C(=O)CF [Compound 134] | 39 | 3690 |
| CC(C)[C@H](NC(=O)c1ccc(C(F)(F)F)cc1)C(=O)N1CCC[C@H]1C(=O)N[C@@H](CCCNC(=N)N)C(=O)CF [Compound 135] | 132 | 120 |
| N=C(N)NCCC[C@H](NC(=O)[C@@H]1CCCN1C(=O)[C@@H](NC(=O)c1ccc(Br)cc1)C1CCCCC1)C(=O)CF [Compound 143] | 45 | 130 |
